Data published in patent US20100203531A1, “PREDICTING RESPONSIVENESS TO TEMOZOLOMIDE” (priority 2007, published 2010).

How the values were obtained:
Assay type in all cases: in vivo, human
GBM44 xenograft = assay: Orthotopic intracranial xenograft survival, GBM44
Description: In vivo sensitivity of GBM lines to TMZ: To address whether MGMT methylation or polypeptide expression status are predictive of TMZ responsiveness, the effects of TMZ therapy on survival were evaluated in the panel of xenografts using an orthotopic therapy model. […] This TMZ dosing regimen provides the equivalent dose-exposure to TMZ as the standard adjuvant TMZ dosing regimen for GBM patients of 200 mg/m^2×5 days. All mice were followed until reaching a moribund state, and the relative prolongation of survival following TMZ treatment was calculated for each line relative to placebo treatment (Table 1). […] Further analysis of the relationship between TMZ responsiveness and MGMT methylation status in 17 xenograft lines was conducted by comparing the distribution of median survival prolongation results for methylation-positive and methylation-negative groups of xenografts. From this analysis, MGMT methylation was modestly associated with increased TMZ sensitivity (FIG. 2, p=0.039, two-sample rank sum test). In a similar analysis of MGMT polypeptide expression levels, high levels of MGMT polypeptide expression were invariably associated with relative TMZ resistance, and the absence of MGMT polypeptide expression was associated with significant TMZ sensitivity (r=−0.73, p=0.005). […] While p53, PTEN and EGFR function have been linked to TMZ sensitivity in some models, no correlation between genetic alterations of these genes and TMZ responsiveness was observed.
Orthotopic model: Therapy evaluations were conducted using an orthotopic tumor model as described elsewhere (Sarkaria et al., Clin Cancer Res, 12:2264-2271 (2006), Giannini et al., Neuro-Oncology, 7:164-176, (2005)). Athymic nude mice (NCI, Frederick, Md.) with established intracranial tumors were randomized into groups of 8 to 10 mice each and treatment was initiated 2 weeks before mice were expected to become moribund. TMZ was purchased from the Mayo Clinic Pharmacy, suspended in Ora-plus (Paddock Laboratories, Minneapolis. […] Mice were observed daily and euthanized when moribund.
(§1) Statistical analysis: Survival distributions were estimated using the Kaplan-Meier method. The log rank test was used to compare survival across treatment groups. All GBM experiments were pooled and Classification and Regression Tree analysis (CART) was used to identify which CpG sites in the MS-PCR assay (CpG sites 78-82, 86-89) were predictive of overall survival in TMZ treated mice. The two-sample rank sum test was used to compare relative differences in survival relative to MGMT MS-PCR status or CpG89 methylation status. Spearman's correlation coefficient was used to assess the association of relative median survival and protein expression levels of MGMT relative to 13-actin.

GBM8 xenograft = assay: Orthotopic intracranial xenograft survival, GBM8
Description: (§2) In vivo sensitivity of GBM lines to TMZ: To address whether MGMT methylation or polypeptide expression status are predictive of TMZ responsiveness, the effects of TMZ therapy on survival were evaluated in the panel of xenografts using an orthotopic therapy model. Mice with established intracranial xenografts were treated with 66 mg/kg TMZ or placebo daily for 5 days by oral gavage. This TMZ dosing regimen provides the equivalent dose-exposure to TMZ as the standard adjuvant TMZ dosing regimen for GBM patients of 200 mg/m^2×5 days. All mice were followed until reaching a moribund state, and the relative prolongation of survival following TMZ treatment was calculated for each line relative to placebo treatment (Table 1). […] Further analysis of the relationship between TMZ responsiveness and MGMT methylation status in 17 xenograft lines was conducted by comparing the distribution of median survival prolongation results for methylation-positive and methylation-negative groups of xenografts. From this analysis, MGMT methylation was modestly associated with increased TMZ sensitivity (FIG. 2, p=0.039, two-sample rank sum test). In a similar analysis of MGMT polypeptide expression levels, high levels of MGMT polypeptide expression were invariably associated with relative TMZ resistance, and the absence of MGMT polypeptide expression was associated with significant TMZ sensitivity (r=−0.73, p=0.005). […] While p53, PTEN and EGFR function have been linked to TMZ sensitivity in some models, no correlation between genetic alterations of these genes and TMZ responsiveness was observed.
(§3) Orthotopic model: Therapy evaluations were conducted using an orthotopic tumor model as described elsewhere (Sarkaria et al., Clin Cancer Res, 12:2264-2271 (2006), Giannini et al., Neuro-Oncology, 7:164-176, (2005)). Athymic nude mice (NCI, Frederick, Md.) with established intracranial tumors were randomized into groups of 8 to 10 mice each and treatment was initiated 2 weeks before mice were expected to become moribund. TMZ was purchased from the Mayo Clinic Pharmacy, suspended in Ora-plus (Paddock Laboratories, Minneapolis. MN), and administered by oral gavage at 66 mg/kg for 5 days. Mice were observed daily and euthanized when moribund.
as §1, with “Spearman's correlation coefficient was used to assess the association of relative median survival and protein expression levels of MGMT relative to 13-actin.” left out

GBM26 xenograft = assay: Orthotopic intracranial xenograft survival, GBM26; conditions: for Survival Prolongation: median survival relative to placebo, 66 mg/kg oral for 5 days (Table 3), 66 mg/kg
Description: as §2, §3, §1

GBM59 xenograft = assay: Orthotopic intracranial xenograft survival, GBM59
Description: In vivo sensitivity of GBM lines to TMZ: To address whether MGMT methylation or polypeptide expression status are predictive of TMZ responsiveness, the effects of TMZ therapy on survival were evaluated in the panel of xenografts using an orthotopic therapy model. Mice with established intracranial xenografts were treated with 66 mg/kg TMZ or placebo daily for 5 days by oral gavage. This TMZ dosing regimen provides the equivalent dose-exposure to TMZ as the standard adjuvant TMZ dosing regimen for GBM patients of 200 mg/m^2×5 days. All mice were followed until reaching a moribund state, and the relative prolongation of survival following TMZ treatment was calculated for each line relative to placebo treatment (Table 1). […] Further analysis of the relationship between TMZ responsiveness and MGMT methylation status in 17 xenograft lines was conducted by comparing the distribution of median survival prolongation results for methylation-positive and methylation-negative groups of xenografts. From this analysis, MGMT methylation was modestly associated with increased TMZ sensitivity (FIG. 2, p=0.039, two-sample rank sum test). […]

GBM36 xenograft = assay: Orthotopic intracranial xenograft survival, GBM36
Description: as §2, §3
as §1, with “Spearman's correlation coefficient was used to assess the association of relative median survival and protein expression levels of MGMT relative to 13-actin.” left out

[1] = test system: GBM14 cells transduced with a luciferase-expressing lentiviral construct; assay: Salvage TMZ therapy in intracranial GBM14-luciferase tumors with bioluminescence imaging
Description: Development of resistance to TMZ during in vivo therapy: The effect of salvage TMZ therapy in recurrent tumors was studied in the GBM14 xenograft line with the assistance of bioluminescence imaging (BLI). In this study, GBM14 cells were transduced with a luciferase-expressing lentiviral construct and then used to establish intracranial tumors. Mice were randomized into three groups: a) vehicle control, b) single dose of 120 mg/kg TMZ, c) initial TMZ dose followed by a second TMZ dose at the time of tumor regrowth, as indicated by BLI (FIGS. 7A and B). […] Extrapolating to the clinic, the apparent development of TMZ resistance during the course of treatment is reminiscent of patients who experience an initial response to TMZ therapy but then develop progressive disease during latter cycles of TMZ treatment.

What does the source list for `Cn1nnc2c(C(N)=O)ncn2c1=O` [TMZ, Temozolomide]?
Survival Prolongation (GBM44 xenograft; GBM44, median survival relative to placebo, 66 mg/kg oral for 5 days (Table 3)): 60%; Survival benefit (GBM44 xenograft; GBM44, prolongation of median survival relative to placebo, TMZ 66 mg/kg oral x5 days): 60%; Survival benefit (GBM44 xenograft; GBM44 generation 5, TMZ 120 mg/kg for 5 days, intracranial): −7%; Survival benefit (GBM44 xenograft; GBM44 generation 12, TMZ 66 mg/kg for 5 days, intracranial): 60%; TMZ median survival (GBM44 xenograft; GBM44 intracranial xenograft, nude mice, TMZ 66 mg/kg oral daily x5 days): 56; Temozolomide median survival (GBM44 xenograft; GBM44 intracranial, athymic nude mice, 66 mg/kg oral gavage for 5 days (Table 3)): 56; Survival Prolongation (GBM8 xenograft; GBM8, median survival relative to placebo, 66 mg/kg oral for 5 days (Table 3)): 110%; Survival benefit (GBM8 xenograft; GBM8, prolongation of median survival relative to placebo, TMZ 66 mg/kg oral x5 days): 110%; TMZ median survival (GBM8 xenograft; GBM8 intracranial xenograft, nude mice, TMZ 66 mg/kg oral daily x5 days): 124; Temozolomide median survival (GBM8 xenograft; GBM8 intracranial, athymic nude mice, 66 mg/kg oral gavage for 5 days (Table 3)): 124; Survival Prolongation (GBM26 xenograft; GBM26): 21%; Survival Prolongation (GBM26 xenograft; GBM26, listed as Temozolomide): 21%; Survival benefit (GBM26 xenograft; GBM26, prolongation of median survival relative to placebo, TMZ 66 mg/kg oral x5 days): 21%; TMZ median survival (GBM26 xenograft; GBM26 intracranial xenograft, nude mice, TMZ 66 mg/kg oral daily x5 days): 100; Temozolomide median survival (GBM26 xenograft; GBM26 intracranial, athymic nude mice, 66 mg/kg oral gavage for 5 days (Table 3)): 100; Survival benefit (GBM59 xenograft; GBM59, prolongation of median survival relative to placebo, TMZ 66 mg/kg oral x5 days): 96%; TMZ median survival (GBM59 xenograft; GBM59 intracranial xenograft, nude mice, TMZ 66 mg/kg oral daily x5 days): 90; Survival Prolongation (GBM36 xenograft; GBM36, median survival relative to placebo, 66 mg/kg oral for 5 days (Table 3)): 82%; Survival benefit (GBM36 xenograft; GBM36, prolongation of median survival relative to placebo, TMZ 66 mg/kg oral x5 days): 82%; TMZ median survival (GBM36 xenograft; GBM36 intracranial xenograft, nude mice, TMZ 66 mg/kg oral daily x5 days): 214; Temozolomide median survival (GBM36 xenograft; GBM36 intracranial, athymic nude mice, 66 mg/kg oral gavage for 5 days (Table 3)): 229; additional survival from second TMZ dose ([1]; second TMZ dose at time of tumor regrowth/recurrence, beyond single-dose prolongation): 22 days; survival prolongation with a single TMZ dose ([1]; single dose of 120 mg/kg TMZ, relative to placebo/vehicle, intracranial GBM14-luciferase): 56 days
